Results: patent publication US9265731B2, “Drying of drug-containing particles” (Bend Research, Inc., priority 2005, dated 2016)

Test: In vitro dissolution test (microcentrifuge, PBS pH 6.5, 37° C., HPLC)
Type: physicochemical
Details: for Drug 1 Concentration: PBS pH 6.5, 290 mOsm/kg, 37° C., 1000 μg/mL if all drug dissolved
Experimental: A sample of the solid amorphous dispersion used in Example 4 was evaluated before and after secondary drying in an in vitro dissolution test to determine the effect of drying on concentration enhancement relative to the crystalline form of Drug 1. As a control, Control 5 consisted of crystalline Drug 1 alone. For this test, a sufficient amount of Dispersion 1 and Control 5 material was added to microcentrifuge test tubes so that the concentration of Drug 1 would have been 1000 μg/mL in both cases if all of the drug had dissolved. The test was performed in duplicate. The tubes were placed in a 37° C. temperature-controlled chamber, and 1.8 mL PBS at pH 6.5 and 290 mOsm/kg was added to each tube. The samples were mixed using a vortex mixer for about 60 seconds. The samples were centrifuged at 13,000 G at 37° C. for 1 minute. The resulting supernatant solution was then sampled and diluted 1:6 (by volume) with methanol and then analyzed by high performance liquid chromatography (HPLC). The contents of each tube were mixed on the vortex mixer and allowed to stand undisturbed at 37° C. until the next sample was taken. Samples were collected at 4, 10, 20, 40, 90, and 1200 minutes.
The concentrations of drug obtained in these samples were used to determine the maximum concentration of drug (MDC90) and the area under the concentration-versus-time curve (AUC90) during the initial ninety minutes.

[1] = PBS pH 6.5, 37° C., initial 90 min

- AUC90 (area under the concentration-versus-time curve during the initial ninety minutes) [1]: <88 µg·min/mL
- MDC90 (maximum concentration of drug during the initial ninety minutes) [1]: <1 µg/mL
- AUC (time 0 min, PBS pH 6.5, 37° C.): 0 µg·min/mL
- Drug 1 Concentration (time 0 min): 0 µg/mL
- AUC (time 4 min, PBS pH 6.5, 37° C.): <2 µg·min/mL
- Drug 1 Concentration (time 4 min): <1 µg/mL
- AUC (time 10 min, PBS pH 6.5, 37° C.): <8 µg·min/mL
- Drug 1 Concentration (time 10 min): <1 µg/mL
- AUC (time 20 min, PBS pH 6.5, 37° C.): <18 µg·min/mL
- Drug 1 Concentration (time 20 min): <1 µg/mL
- AUC (time 40 min, PBS pH 6.5, 37° C.): <38 µg·min/mL
- Drug 1 Concentration (time 40 min): <1 µg/mL
- AUC (time 90 min, PBS pH 6.5, 37° C.): <88 µg·min/mL
- Drug 1 Concentration (time 90 min): <1 µg/mL
- AUC (time 1200 min, PBS pH 6.5, 37° C.): <1,200 min*μg/mL
- Drug 1 Concentration (time 1200 min): <1 µg/mL
SMILES: CCOC(=O)N1c2ccc(C(F)(F)F)cc2[C@@H](N(Cc2cc(C(F)(F)F)cc(C(F)(F)F)c2)C(=O)OC)C[C@H]1CC [Control 5, [2R,4S]4-[(3,5-bistrifluoromethyl-benzyl)-methoxycarbonyl-amino]-2-ethyl-6-trifluoromethyl-3,4-dihydro-2H-quinoline-1-carboxylic acid ethyl ester]
